Test results: publication PMC8307831, “Preparation of Monoclonal Antibody and Development of Indirect Competitive Enzyme-Linked Immunosorbent Assay and Fluorescence-Linked Immunosorbent Assay for Detecting 3-Amino-5-methylmorpholino-2-oxazolidinone (AMOZ) in Edible Animal Tissue” (Molecules, 2021)
≈ marks a conversion by molar mass, not a printed value.

Legend:
mAb 5C10/3A8 [1] = assay: indirect competitive ELISA (ic-ELISA) with CPAMOZ-OVA coating antigen; type: binding, mouse; conditions: for Cross-Reactivity: (IC50 of 2-NP-AMOZ / IC50 of compound tested) x 100%, 2-NP-AMOZ set to 100%; for IC50: mAb 5C10/3A8, competition with coating antigen CPAMOZ-OVA
Protocol: To carry out 2-NP-AMOZ ic-ELISA, 96-well plates were first coated with 100 μL of CPAMOZ-OVA in 50 mM of carbonate buffer solution (pH = 9.6) overnight at 4 °C. […] The plates were washed again three times, after which 50 μL of different concentrations of 2-NP-AMOZ analytes and 50 μL of the obtained mAb were added into each well, incubated at 37 °C for 1 h, and the plates were washed three times with the PBST. Subsequently, 100 μL of horseradish peroxidase-labeled goat anti-mouse IgG (1:10,000 dilution) was added to the wells and incubated at 37 °C for 1 h. This was followed by a washing step of three washes with PBST solution, after which 100 μL of substrate solution was added to each well and incubated for 15 min in darkness. The reaction was stopped by adding 50 μL/well of 2 M of H2SO4. The absorbance at 450 nm was measured on a Tecan Sunrise 2.5 microplate reader (SUNRISE, Austria). A calibration curve was constructed by plotting (B/B0) × 100% vs. log C, where B and B0 represent the absorbance of the analyte at the known concentrates (standards) and at zero concentration of the analyte, respectively.
The extent of cross-reactivity was evaluated by determining IC50 values using an ic-ELISA as described above. […] The concentration of the standard solutions of the compounds was set from 0.01 to 1000 ng/mL.

monoclonal antibodies = test system: monoclonal antibodies; set-up: method as in not given; conditions: published mAb-based homologous ic-ELISAs and fluoroimmunoassay; range over the literature; ref not given; cited from earlier work
mAb 5C10/3A8 [2] = assay: QD-based fluorescence-linked immunosorbent assay (FLISA); type: binding; conditions: 655 nm QDs-conjugated goat anti-mouse IgG
Protocol: The procedures for FLISA and ic-ELISA were identical before the secondary antibody was added. More specifically, after washing with PBST for three times, 100 μL of 655 nm QDs-conjugated goat anti-mouse IgG (1:10,000 dilution) was added to each well and incubated at 37 °C for 45 min. After three washes with PBST, a SpectraMax M2e Microplate Reader (Molecular Devices, San Jose, CA, USA) was used to measure the fluorescence signals from samples with excitation/emission at 360/655 nm. The fluorescence intensities were identified as B0 and B for the control and testing sample. The standard curve was established by plotting the form (B/B0) 100% against the 2-NP-AMOZ concentration.

Row | SMILES | Cross-Reactivity (mAb 5C10/3A8 [1]) | IC50 (mAb 5C10/3A8 [1]) | IC50 (monoclonal antibodies) | IC50 (mAb 5C10/3A8 [2])
1 | NN1CCOC1=O [AOZ, 3-amino-2-oxazolidinone] | <0.01% | >1 µg/mL | – | –
2 | NC(=O)N/N=C/c1ccc([N+](=O)[O-])o1 [Nitrofurazone, nitrofurazone] | <0.01% | >1 µg/mL | – | –
3 | O=C(O)c1ccc(/C=N/N2CC(CN3CCOCC3)OC2=O)cc1 (centres unmarked) [CPAMOZ, carboxyphenyl AMOZ] | 122.2% | 9e-05 µg/mL (≈ 0.00027 µM) | – | –
4 | O=C1CN(/N=C/c2ccc([N+](=O)[O-])o2)C(=O)N1 [Nitrofurantoin, nitrofurantoin] | <0.01% | >1 µg/mL | – | –
5 | NN1CC(CN2CCOCC2)OC1=O (centres unmarked) [AMOZ, 3-amino-5-morpholinomethyl-2-oxazolidinone] | 10.7% | 0.00103 µg/mL (≈ 0.00512 µM) | 0.00115 to 0.00533 µg/mL | –
6 | O=C1OC(CN2CCOCC2)CN1/N=C/c1ccc([N+](=O)[O-])o1 (centres unmarked) [Furaltadone, furaltadone] | 8.9% | 0.00124 µg/mL (≈ 0.00382 µM) | – | –
7 | O=Cc1ccccc1[N+](=O)[O-] [2-NBA, 2-nitrobenzaldehyde] | <0.01% | >1 µg/mL | – | –
8 | O=C1CN(/N=C/c2ccccc2[N+](=O)[O-])C(=O)N1 [2-NP-AHD] | <0.01% | >1 µg/mL | – | –
9 | O=C1OC(CN2CCOCC2)CN1/N=C/c1ccccc1[N+](=O)[O-] (centres unmarked) [2-NP-AMOZ] | 100% | 0.00011 µg/mL (≈ 0.000329 µM) | 0.00014 to 0.0043 µg/mL | 0.09 ng/mL (≈ 0.000269 µM)
10 | O=C1OCCN1/N=C/c1ccccc1[N+](=O)[O-] [2-NP-AOZ] | <0.01% | >1 µg/mL | – | –
11 | NN1CC(=O)NC1=O [AHD, 1-aminohydantoin] | <0.01% | >1 µg/mL | – | –
12 | NNC(N)=O [SEM, semicarbazide] | <0.01% | >1 µg/mL | – | –
13 | O=Cc1ccc(C(=O)O)cc1 [4-CBA, 4-carboxybenzaldehyle] | <0.01% | >1 µg/mL | – | –
